Experimental findings from EP0580252A2, “Improvements in or relating to pectin methyl esterase” (QUEST INTERNATIONAL B.V., priority 1992, dated 1994) are described below.

For test [1], the system named is papain derived PME (pectin methyl esterase). The experiment in a line: Inhibition test with tyrosine selective inhibitor N-acetyl-imidazole. It is filed as biochemical, papaya. The following applies: NAI 1.4mg.100 ml; 1% pectin (5% for papain also); enzyme 0.005-0.088%. As for the experimental part: (§1) Bacterial and plant derived PMEs were tested for inhibition by N-acetyl-imidazole (NAI), a tyrosine selective inhibitor.
(§2) Inhibition by N-acetyl-imidazole was carried out in three different ways: by addition of the NAI to enzyme solution, to pectin solution, and to mixed enzyme and substrate. Typically we used 1% pectin (5% for papain also), enzyme concentrations of 0.005-0.088% and NAI concentrations of 1.4mg.100 ml.

In test [2] the test system is ficin derived PME (pectin methyl esterase). Described as above. The format is biochemical, fig. The following applies: NAI 1.4mg.100 ml; 1% pectin; enzyme 0.005-0.088%. On the procedure: as §1, §2
Test [3] deals with bromelain derived PME (pectin methyl esterase). The description is as above. It is filed as biochemical, bromelard. To be noted: NAI 1.4mg.100 ml; 1% pectin; enzyme 0.005-0.088%. On the procedure:
as §1, §2

For test [4], the system named is WGL (wheat germ lipase) derived PME (pectin methyl esterase). Described as above. The format is biochemical. The following applies: NAI 1.4mg.100 ml; 1% pectin; enzyme 0.005-0.088%. On the procedure: as §1, §2
Test [5] deals with bacterial PMEs. The test is described as above. The following applies: NAI 1.4mg.100 ml; 1% pectin; enzyme 0.005-0.088%. The format is biochemical. On the procedure:
as §1, §2

Test [6] has as its system orange PME. Described as above. The format is biochemical. The following applies: NAI 1.4mg.100 ml; 1% pectin; enzyme 0.005-0.088%. As for the experimental part: as §1, §2
Test [7] concerns tomato PME. The description is as above. The format is biochemical. To be noted: NAI 1.4mg.100 ml; 1% pectin; enzyme 0.005-0.088%. On the procedure: as §1, §2
The subject of test [8] is papain PME. The experiment in a line: Effect of methanol (reaction product) on PME activity. It is filed as biochemical, papaya. The following applies: methanol concentration not stated.
In test [9] the test system is PMEs (papain PME, ficin PME and other known plant PMEs). As to the kind of experiment: Inhibition of PME activity by galacturonic acid. The format is biochemical. The following applies: up to concentrations of 25 gl⁻¹.

In the case of `CC(=O)n1ccnc1` [NAI, N-acetyl-imidazole], the “inhibition by NAI” value in test [1] was “not to be inhibited”; in test [2], “not to be inhibited”; in [3], “not to be inhibited”; in test [4], “not to be inhibited”; in test [5] it was “inhibited”; in test [6] it was “inhibited”. The “inhibition by NAI” value in test [7] is given as “inhibited”.

Regarding `CO` [methanol], the inhibition by methanol result in test [8] (1% pectin) was “inhibited”; in test [8] (5% pectin) it was “hardly noticed”; in test [8] it was “under certain conditions is inhibited and YES”.

Turning to galacturonic acid, the “inhibition by galacturonic acid” value in [9] is listed as “None of the PMEs is inhibited”.
